Laboratory results taken from patent US10822317B2, “Methods and compositions for wound healing” (QBiotics Limited, priority 2013, dated 2020).

Tests used:
[1] = tested on: human peripheral blood monocytes; assay: Differentiation of monocytes into macrophages; format: cell-based; conditions: 10-fold dilutions; 4 days; adherence and morphology
Experimental: To determine potential effects of Compound 1 and fifteen other epoxy-tigliane compounds in the array on monocyte differentiation, human peripheral blood mononuclear cells (PBMCs) were isolated by Ficoll-Paque sedimentation of heparinised blood from a human donor, and plated at 100,000 cells/well in RPMI-1640 10% FCS. Duplicate wells were treated with 10-fold dilutions of the compounds and incubated at 37° C. for 4 days. The wells were scored visually for cell attachment and morphology, then washed twice with PBS, stained with sulfurhodamine and the incorporate stain quantitated in an ELISA reader. The plates were then washed with water and stained with 1% crystal violet in methanol for photography and scoring of adherent cell morphology.

[2] = tested on: human neonatal fibroblasts; assay: Scratch closure, human neonatal fibroblasts, Method 3 (IncuCyte); format: cell-based; conditions: 200 ng/mL
Experimental: The ability of early. passage neonatal foreskin fibroblasts (NFF) cultured in RPMI 1640-10% foetal calf serum to migrate across a scratch wound made in a confluent monolayer following treatment with purified compounds or plant extracts was determined using one or more of the following three methods.
Cells were seeded and treated in 96-well plates as in Method 2 (5 replicate wells per dilution), except that the scratches were made in one action with a tool having 96, 1 mm thick teflon coated pins (Essen Bioscience Woundmaker). The plate was then placed in a 37° C., 5% CO2 humidified atmosphere in an IncuCyte FLR instrument programmed to photograph each well under phase contrast at 3 hr intervals for 42 hours. The software determined the initial scratch boundaries and their rate of closure. Accelerated wound closure was considered to be significant if the initial rate of closure was >10% of the untreated controls.

Molecule | Differentiation endpoint (endpoint concentration in dilution series for induction of macrophage phenotype) [1] [ng/mL] | % closure compared to control [2] [%]
12,13-di-heptanoyl-6,7-epoxy-4,5,9,12,13,20-hexahydroxy-1-tigliaen-3-one [Compound 49] | 1 | –
12,13-di-nonoyl-6,7-epoxy-4,5,9,12,13,20-hexahydroxy-1-tigliaen-3-one [Compound 41] | 0.1 | –
12-(3-butenoyl)-13-nonanoyl-6,7-epoxy-4,5,9,12,13,20-hexahydroxy-1-tigliaen-3-one [Compound 22] | 100 | 400
12-benzoyl-13-(2-methylbutanoyl)-6,7-epoxy-4,5,9,12,13,20-hexahydroxy-1-tigliaen-3-one [Compound 23] | 1 | 130
12-benzoyl-13-butanoyl-6,7-epoxy-4,5,9,12,13,20-hexahydroxy-1-tigliaen-3-one [Compound 28] | – | 140
12-myristoyl-13-(2-methylbutanoyl)-6,7-epoxy-4,5,9,12,13,20-hexahydroxy-1-tigliaen-3-one [Compound 51] | 1 | –
12-myristoyl-13-acetyl-6,7-epoxy-4,5,9,12,13,20-hexahydroxy-1-tigliaen-3-one [Compound 50] | 1 | –
12-tigloyl-13-butanoyl-6,7-epoxy-4,5,9,12,13,20-hexahydroxy-1-tigliaen-3-one [Compound 21] | 10 | 200
CCCCCC=CC=CC=CC(=O)OC1C(C)C2(O)C(C3OC3(CO)C(O)C3(O)C(=O)C(C)=CC32)C2C(C)(C)C12OC(=O)C(C)CC (stereo not drawn) [Compound 3, 12-[(2E,4E,6E)-dodeca-2,4,6-trienoyl]-13-(2-methylbutanoyl)-6,7-epoxy-4,5,9,12,13,20-hexahydroxy-1-tigliaen-3-one] | 10 | 270
CCCCCC(O)C(O)/C=C/C=C/C(=O)OC1C(C)C2(O)C(C3OC3(CO)C(O)C3(O)C(=O)C(C)=CC32)C2C(C)(C)C12OC(=O)C(C)CC (stereo not drawn) [Compound 11, 12-[(2E,4E)-6,7-dihydroxydodeca-2,4-dienoyl]-13-(2-methylbutanoyl)-6,7-epoxy-4,5,9,12,13,20-hexahydroxy-1-tigliaen-3-one] | – | 270
CCCCCC=CC=CC(=O)OC1C(C)C2(O)C(C3OC3(CO)C(O)C3(O)C(=O)C(C)=CC32)C2C(C)(C)C12OC(=O)C(C)CC (stereo not drawn) [Compound 18, 12-[(2Z,4E)-deca-2,4-dienoyl]-13-(2-methylbutanoyl)-6,7-epoxy-4,5,9,12,13,20-hexahydroxy-1-tigliaen-3-one] | – | 220
CCCCCC=CC=CC(=O)OC1C(C)C2(O)C(C3OC3(CO)C(O)C3(O)C(=O)C(C)=CC32)C2C(C)(C)C12OC(=O)C(C)CC (stereo not drawn) [Compound 24, 12-[(2E,4E)-deca-2,4-dienoyl]-13-(2-methylbutanoyl)-6,7-epoxy-4,5,9,12,13,20-hexahydroxy-1-tigliaen-3-one] | 1 | –
CCC(C)C(=O)OC1C(C)C2(O)C(C3OC3(CO)C(O)C3(O)C(=O)C(C)=CC32)C2C(C)(C)C12OC(C)=O (stereo not drawn) [Compound 52, 12-(2-methylbutanoyl)-13-acetyl-6,7-epoxy-4,5,9,12,13,20-hexahydroxy-1-tigliaen-3-one] | 10 | –
CCCCCC(=O)OC12C(O)C(C)C3(O)C(C4OC4(CO)C(O)C4(O)C(=O)C(C)=CC43)C1C2(C)C (stereo not drawn) [Compound 53, 13-hexanoyl-6,7-epoxy-4,5,9,12,13,20-hexahydroxy-1-tigliaen-3-one] | 100 | –
